Source: patent publication US20240277636A1, “COMBINATION COMPRISING AT LEAST ONE SEROTONIN REUPTAKE INHIBITOR AND AT LEAST ONE STIMULATOR OF POTASSIUM-CHLORIDE COTRANSPORTER TYPE 2 AND ITS MEDICAL USE” (Université de Bordeaux, priority 2021, published 2024)

Tested on: neuropathic mice
Conditions: conditioned 1 h 30 after injection, post- versus pre-conditioning, result in words
Description: 14 days after mice are free to explore during 10 minutes, a 2-chamber arena separated by a narrow corridor. A camera placed above the device allows tracking of mice movements. […] 1 H 30 after injection of either fluoxetine alone or combination of fluoxetine and CLP290, mice are restricted to one chamber during 10 minutes. 2 days after mice are put again and free to explore the entire arena. […] As control experiment, the same procedure is performed in neuropathic mice with fluoxetine and CLP290 vehicle.

CNCCC(Oc1ccc(C(F)(F)F)cc1)c1ccccc1 (stereo not shown) [fluoxetine]
time spent in the conditioned chamber (CPP): not
